Results taken from patent US20240342136A1, “Glutamate receptor agonists for suppression of mast cell function” (University of Pittsburgh - Of the Commonwealth System of …, priority 2023, published 2024).
Entries after “also recorded” stand apart in the source; their conditions may differ.

What was measured:
[1] = tested on: murine peritoneal mast cells; experiment: Mast cell degranulation by flow cytometry (surface Lamp1 and avidin binding) after compound 48/80; assay type: cell-based; settings: for mast cell degranulation (mast cell activation): 48 hours incubation, compound 48/80 20 ug/ml 20 minutes, FIG. 1B; for degranulation of PCMC in response to MrgprB2: in vitro, dose-dependent manner
Protocol: Primary mast cell cultures derived from murine peritoneal mast cells were incubated for 48 hours with kainic acid (0.1, 1.0, 10 and 100 uM), glutamate (6 mM) or vehicle control. Cultures were then exposed to the synthetic MrgprB2 ligand, compound 48/80, at 20 ug/ml for 20 minutes. The extent of mast cell degranulation was determined based on surface expression of Lamp1 protein and avidin binding using flow cytometry gated on CD117+ FcεR+ mast cells. Representative flow plots from unstimulated cells (control) and cells stimulated with compound 48/80 are shown (FIG. 1A). […] A similar set of experiments were performed using mast cells incubated with the selective GluK2 agonist, SYM2081 at 1600 nM concentration (FIGS. 1C and 1D). […] Each symbol represents data from a single well of mast cells.

dermal mast cells = experiment: Evans Blue dye edema after intradermal compound 48/80 in mice; assay type: in vivo, C57BL/6 mice; settings: compound 48/80 challenge, 20 minutes
Protocol: Cohorts of 7-9-week-old female C57BL/6 mice were given 20 ul intradermal flank injections of 1600 nM SYM2081 or control PBS twice a day for 2 days. Evans Blue dye was introduced by intravenous injection to allow for quantification of edema followed by intradermal injection of control PBS or compound 48/80 (20 ul 10 ug/ml). The amount of Evans blue dye released into the skin which quantifies edema and is an indirect measure of mast cell degranulation was measured 20 minutes later (FIG. 2A). […] The percentage of degranulated mast cells was also quantified by direct microscopic visualization of skin samples stained with toluidine blue (FIG. 2B). […] Mice were then challenged by application of 0.5% croton oil, an irritant, on 1 ear and the degree of ear swelling which is reflective of the extent of irritant dermatitis was measured (FIG. 2D). […]
Cohorts of 7-9-week-old female C57BL/6 mice were treated with 5.0% SYM2081 formulated into a light base or vehicle alone on the flank twice daily for 2 days. Evans Blue dye was introduced by intravenous injection to allow for quantification of edema followed by intradermal injection of control PBS or compound 48/80 (20 ul 10 ug/ml). The amount of Evans blue dye released into the skin which quantifies edema and is an indirect measure of mast cell degranulation was measured 20 minutes later (FIG. 3A). […]

irritant dermatitis = experiment: Croton oil-induced irritant dermatitis, ear swelling; assay type: in vivo, C57BL/6 mice; settings: intradermal SYM2081 for 2 days; 0.5% croton oil on 1 ear; FIG. 2D
Protocol: (§1) Cohorts of 7-9-week-old female C57BL/6 mice were given 20 ul intradermal flank injections of 1600 nM SYM2081 or control PBS twice a day for 2 days. Evans Blue dye was introduced by intravenous injection to allow for quantification of edema followed by intradermal injection of control PBS or compound 48/80 (20 ul 10 ug/ml). The amount of Evans blue dye released into the skin which quantifies edema and is an indirect measure of mast cell degranulation was measured 20 minutes later (FIG. 2A). […] The percentage of degranulated mast cells was also quantified by direct microscopic visualization of skin samples stained with toluidine blue (FIG. 2B). Whole human skin explants were cultured in control PBS or 1600 nM SYM2081 for 48 hours. Sample were exposed to compound 48/80 (240 ug/ml) for 20 minutes followed by direct microscopic visualization of skin samples stained with toluidine blue (FIG. 2C). […] Finally, C57BL/6 mice were treated with intradermal injection of control PBS or SYM2081 for 2 days as above. Mice were then challenged by application of 0.5% croton oil, an irritant, on 1 ear and the degree of ear swelling which is reflective of the extent of irritant dermatitis was measured (FIG. 2D). […] Each symbol represents data from an individual animal.

contact hypersensitivity = experiment: DNFB contact hypersensitivity, ear thickness; assay type: in vivo, mice; settings: topical SYM2081 on shaved abdomen twice daily for 2 days; 0.5% DNFB sensitization, 0.25% DNFB challenge; 7 days; FIG. 3B
[2] = tested on: mast cells in whole human skin explants; experiment: Whole human skin explants, degranulated mast cells by toluidine blue after compound 48/80; assay type: cell-based; settings: 1600 nM for 48 hours; compound 48/80 240 ug/ml 20 minutes; FIG. 2C
Protocol: as §1

[3] = tested on: murine peritoneal mast cells; experiment: β-hexosaminidase release from mast cells; assay type: cell-based; settings: preincubated with SYM2081 at 100 nM and 1600 nM; FIG. 1F

Row | SMILES | mast cell degranulation (mast cell activation) ([1]; glutamate 6 mM) | degranulation of PCMC in response to MrgprB2 [1] | mast cell degranulation (mast cell activation) ([1]; kainic acid 0.1, 1.0, 10 and 100 uM) | edema (Evans blue dye released into the skin), indirect measure of mast cell degranulation (dermal mast cells; 20 ul intradermal 1600 nM SYM2081 twice a day for 2 days, FIG. 2A) | edema (Evans blue dye released into the skin), indirect measure of mast cell degranulation (dermal mast cells; topical 5.0% SYM2081 in a light base on flank twice daily for 2 days, FIG. 3A) | ear swelling (irritant dermatitis) (irritant dermatitis) | increased ear thickness (inflammation) in response to DNFB (contact hypersensitivity) | effective concentration (suppression of mast cells) ([1]; FIG. 1E) | IC50 ([1]; Mus musculus, Mast cell, read-out: IC50 of suppression of mast cells (degranulation)) [nM] | percentage of degranulated mast cells [2] | release of β-hexosaminidase [3]
1 | N[C@@H](CCC(=O)O)C(=O)O [glutamate] | suppress mast cell activation | suppressed |  |  |  |  |  |  |  |  | 
2 | C=C(C)[C@H]1CN[C@H](C(=O)O)[C@H]1CC(=O)O [kainic acid] |  | suppressed | suppress mast cell activation |  |  |  |  |  |  |  | 
3 | C[C@H](C[C@H](N)C(=O)O)C(=O)O [SYM2081, (2S,4R)-4-methylglutamic acid] |  | suppressed |  | effective to reduce mast cell degranulation; also recorded: suppressed; also recorded: significant reduction in edema | effective to reduce mast cell degranulation; also recorded: significant reduction in edema | attenuated; also recorded: reduced ear swelling | reduced inflammation | at least 0.1 nM | 2.27 | reduced percentage of degranulated mast cells | decreased
